Measured values from article PMC12027946, “Ionic and Non-Ionic Counterparts Based on Bis(Uracilyl)Alkane Moiety with Highest Selectivity Towards Acetylcholinesterase for Protection Against Organophosphate Poisoning and Treating Alzheimer’s Disease” (International Journal of Molecular Sciences, 2025).
Several values for one entry are separate records, joined by “and”; a condition that tells them apart may be missing. Equal entries are not always repeated.

Legend:
[1] = target: T1, BChE from human plasma (Homo sapiens, UniProt P06276); assay: In vitro cholinesterase inhibition (Ellman), BuChE; type: biochemical; conditions: Table 2; human BuChE; read-out: IC50 BuChE
T1 construct: butyrylcholiesterase from human plasma; purchased Sigma-Aldrich; host or cells: human plasma
Protocol: (§1) Inhibitory activities of the tested compounds against AChE and BChE were measured according to Ellman et al.. Enzyme-catalysed hydrolysis of ATCHh was carried out at 25 °C in 0.1 M phosphate buffer (pH 8.0) containing 0.25 U AChE, 1 mM ATCHh as substrates, and 0.1 mM of DTNB. In experiments with BuChE, 0.1 M phosphate buffer (pH 7.0) and BuTChh as a substrate were used. The tested compounds were pre-incubated with the enzyme for two minutes prior to the addition of the substrate and the subsequent recording of hydrolysis kinetics. […] A sample without an inhibitor was used as a control (100% cholinesterase activity). A sample without a substrate was used as a blank. Experiments were performed in triplicate.

[2] = tested on: scopolamine-induced amnesia in mice; assay: Novel object recognition test, scopolamine-induced amnesia; type: in vivo; conditions: scopolamine 1.5 mg/kg
Protocol: This study explored the ability of bisuracil 3c to counteract scopolamine-induced amnesia in mice, utilising behavioural assessments conducted through the novel object recognition test. […] The induction of amnesia was facilitated by the i.p. injection of scopolamine (1.5 mg/kg) 50 min prior to testing. […]. An equivalent amount of the vehicle was administered to a control group of mice.
The experiments were carried out on CD1 mice of both sexes weighing 24–25 g. The novel object recognition test was conducted over a period of three days. On the first day, the mice were placed individually into the square testing arena with black walls (50 cm in length, 50 cm in width, 38 cm in height) for 5 min without any objects. On the second day, two identical objects were placed in the central part of the arena, and the mice were allowed to explore the objects for 10 min. Test compounds were administered prior to testing on the second day. The induction of amnesia was facilitated by i.p. injection of scopolamine (1.5 mg/kg) 50 min prior to testing. Tested compounds were administered i.p. 30 min prior to testing. The control group of animals was administered with an equivalent amount of vehicle. On the third day, the mice were presented with a familiar and a novel object for 10 min. The time of exploration of each object by the mice was recorded using a digital camera. After each test, the arena was cleaned with a solution of 70% ethanol. At the end of the test, the preference index (exploration of novel object/total exploration time × 100) was calculated.

[3] = target: T2, human AChE (Homo sapiens, UniProt P22303); assay: In vitro cholinesterase inhibition (Ellman), AChE; type: biochemical; conditions: Table 2; human AChE; read-out: IC50 AChE
T2 construct: purchased Sigma-Aldrich
Protocol: as §1

T2 sequence (P22303 32-614): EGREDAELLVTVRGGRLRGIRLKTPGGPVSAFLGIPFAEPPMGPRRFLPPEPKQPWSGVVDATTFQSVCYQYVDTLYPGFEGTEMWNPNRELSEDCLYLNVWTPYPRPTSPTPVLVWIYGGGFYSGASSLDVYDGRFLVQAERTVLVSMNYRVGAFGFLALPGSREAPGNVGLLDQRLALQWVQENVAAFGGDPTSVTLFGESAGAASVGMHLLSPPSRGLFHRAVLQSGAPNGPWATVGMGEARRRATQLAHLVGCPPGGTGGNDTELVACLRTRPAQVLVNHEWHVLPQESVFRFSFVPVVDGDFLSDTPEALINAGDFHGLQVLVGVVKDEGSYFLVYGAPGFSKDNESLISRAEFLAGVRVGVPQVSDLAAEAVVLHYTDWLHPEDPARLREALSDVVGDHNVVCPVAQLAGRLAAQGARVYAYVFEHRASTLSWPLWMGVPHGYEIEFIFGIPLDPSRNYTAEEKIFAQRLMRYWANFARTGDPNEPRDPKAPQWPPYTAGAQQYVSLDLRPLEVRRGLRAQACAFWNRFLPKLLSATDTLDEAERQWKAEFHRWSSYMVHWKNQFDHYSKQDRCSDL
T1 sequence (P06276 29-602): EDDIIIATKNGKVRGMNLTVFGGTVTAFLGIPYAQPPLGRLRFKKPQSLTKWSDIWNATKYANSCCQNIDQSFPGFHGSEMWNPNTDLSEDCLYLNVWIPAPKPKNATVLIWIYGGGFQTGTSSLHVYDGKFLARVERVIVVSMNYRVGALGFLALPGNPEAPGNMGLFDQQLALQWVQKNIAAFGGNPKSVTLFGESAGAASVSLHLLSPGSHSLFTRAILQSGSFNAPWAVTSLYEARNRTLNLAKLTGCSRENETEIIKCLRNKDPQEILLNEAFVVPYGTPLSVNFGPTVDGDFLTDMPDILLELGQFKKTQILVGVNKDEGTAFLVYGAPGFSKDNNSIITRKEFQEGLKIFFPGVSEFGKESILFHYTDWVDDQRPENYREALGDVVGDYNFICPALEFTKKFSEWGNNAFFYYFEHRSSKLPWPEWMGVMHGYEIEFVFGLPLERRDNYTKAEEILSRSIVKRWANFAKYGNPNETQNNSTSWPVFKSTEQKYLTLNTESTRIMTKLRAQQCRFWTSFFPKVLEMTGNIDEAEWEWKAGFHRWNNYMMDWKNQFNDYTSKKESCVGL

## CCN(CCCCCn1c(=O)ccn(CCCCCn2c(C)cc(=O)n(C)c2=O)c1=O)Cc1ccccc1C#N [3c]
[1]
  IC50: 28000 nM
[2]; 3c 2 mg/kg i.p. 30 min prior to testing
  effect on the preference index: no significant effect
[2]; 3c 5 mg/kg i.p. 30 min prior to testing, p = 0.01
  increase in the preference for the novel object compared to the scopolamine-treated group: 30.5%
[3]
  IC50: 2.78 nM and 2.8 nM
